The text below walks through data of patent US20250129104A1, “7H-PYRROLO[2,3-D]PYRIMIDINES AND PREPARATION AND USES THEREOF” (BioSplice Therapeutics, Inc., priority 2021, published 2025).

Each structure is given as a SMILES string.

The test concerns the target recombinant DYRK1A kinase (Homo sapiens (Human), UniProt Q13627). Kind of test: DYRK1A kinase assay (Ser/Thr 18 peptide Z-lyte FRET assay). Format: biochemical. As to conditions: DYRK1A kinase activity; 15 μM ATP, 1 h room temperature; method text calls the value IC50. Summed up:
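Recombinant human DYRK1A (0.25 μg/mL) with 15 μM ATP and 4 μM Ser/Thr 18 peptide, 1 h at room temperature with compound (11-point, 1:3, 10 μM top, duplicate). Z-lyte development 1 h, then coumarin/fluorescein FRET emission ratio converted to % phosphorylation; IC50 by non-linear regression.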
Turning to `COC[C@@H](C)Nc1nc(OC)c2c(-c3ccc4nnn(CC(F)F)c4c3)c[nH]c2n1` [Compound 2294, (R)-5-(1-(2,2-Difluoroethyl)-1H-benzo[d][1,2,3]triazol-6-yl)-4-methoxy-N-(1-methoxypropan-2-yl)-7H-pyrrolo[2,3-d]pyrimidin-2-amine], the EC50 (commonly the concentration giving half of the maximal effect) turned out to be 23.7 nM. The same measure for `COc1nc(NCC(C)(C)F)nc2[nH]cc(-c3ccc4nccn4n3)c12` [Compound 2298, N-(2-Fluoro-2-methylpropyl)-5-(imidazo[1,2-b]pyridazin-6-yl)-4-methoxy-7H-pyrrolo[2,3-d]pyrimidin-2-amine]: 117 nM. With `COC[C@@H](C)Nc1nc(OC)c2c(-c3ccc4nccn4n3)c[nH]c2n1` [Compound 2300, (R)-5-(Imidazo[1,2-b]pyridazin-6-yl)-4-methoxy-N-(1-methoxypropan-2-yl)-7H-pyrrolo[2,3-d]pyrimidin-2-amine], the EC50 is 230 nM. Consider `COc1nc(NCC(C)(C)F)nc2[nH]cc(-c3ccn4nccc4c3)c12` [Compound 2305, N-(2-Fluoro-2-methylpropyl)-4-methoxy-5-(pyrazolo[1,5-a]pyridin-5-yl)-7H-pyrrolo[2,3-d]pyrimidin-2-amine], for which the EC50 stood at 21.8 nM.

As for `COc1nc(N[C@H]2CC[C@@H](OC)CC2)nc2[nH]cc(-c3ccn4nccc4c3)c12` [Compound 2306, 4-Methoxy-N-(cis-4-methoxycyclohexyl)-5-(pyrazolo[1,5-a]pyridin-5-yl)-7H-pyrrolo[2,3-d]pyrimidin-2-amine], the EC50 turned out to be 171 nM. The result for `COc1nc(N[C@H]2CC[C@H](OC(F)F)CC2)nc2[nH]cc(-c3ccn4nccc4c3)c12` [Compound 2308, N-(trans-4-(Difluoromethoxy)cyclohexyl)-4-methoxy-5-(pyrazolo[1,5-a]pyridin-5-yl)-7H-pyrrolo[2,3-d]pyrimidin-2-amine] reads 462 nM. The same measure for `COc1nc(N[C@@H]2CCCOC2)nc2[nH]cc(-c3ccn4nccc4c3)c12` [Compound 2314, (R)-4-Methoxy-5-(pyrazolo[1,5-a]pyridin-5-yl)-N-(tetrahydro-2H-pyran-3-yl)-7H-pyrrolo[2,3-d]pyrimidin-2-amine]: 17.3 nM. The same measure for `COc1nc(N[C@H]2CCCOC2)nc2[nH]cc(-c3ccn4nccc4c3)c12` [Compound 2315, (S)-4-Methoxy-5-(pyrazolo[1,5-a]pyridin-5-yl)-N-(tetrahydro-2H-pyran-3-yl)-7H-pyrrolo[2,3-d]pyrimidin-2-amine]: 120 nM. For `COc1nc(N[C@@H]2CCOC[C@H]2F)nc2[nH]cc(-c3ccn4nccc4c3)c12` [Compound 2316, N-((3S,4R)-3-Fluorotetrahydro-2H-pyran-4-yl)-4-methoxy-5-(pyrazolo[1,5-a]pyridin-5-yl)-7H-pyrrolo[2,3-d]pyrimidin-2-amine], the concentration for a half-maximal effect (EC50) was 160 nM. The result for `COc1nc(N[C@@H]2CCOC[C@@H]2F)nc2[nH]cc(-c3ccn4nccc4c3)c12` [Compound 2317, N-((3R,4R)-3-Fluorotetrahydro-2H-pyran-4-yl)-4-methoxy-5-(pyrazolo[1,5-a]pyridin-5-yl)-7H-pyrrolo[2,3-d]pyrimidin-2-amine] reads 107 nM; that for `COc1nc(N[C@@H]2CCOC[C@H]2O)nc2[nH]cc(-c3ccn4nccc4c3)c12` [Compound 2318, (3S,4R)-4-((4-Methoxy-5-(pyrazolo[1,5-a]pyridin-5-yl)-7H-pyrrolo[2,3-d]pyrimidin-2-yl)amino)tetrahydro-2H-pyran-3-ol], 12.9 nM. The same measure for `COc1nc(N[C@@H]2CCOC[C@H]2OC)nc2[nH]cc(-c3ccn4nccc4c3)c12` [Compound 2319, 4-Methoxy-N-((3S,4R)-3-methoxytetrahydro-2H-pyran-4-yl)-5-(pyrazolo [1,5-a]pyridin-5-yl)-7H-pyrrolo[2,3-d]pyrimidin-2-amine]: 287 nM.

Consider `CC(C)Oc1nc(N[C@H]2CC[C@@](C)(O)CC2)nc2[nH]cc(-c3ccn4nccc4c3)c12` [Compound 2320, cis-4-((4-Isopropoxy-5-(pyrazolo[1,5-a]pyridin-5-yl)-7H-pyrrolo[2,3-d]pyrimidin-2-yl)amino)-1-methylcyclohexan-1-ol], for which the EC50 was 59.4 nM. As for `COc1nc(NC2[C@H]3COC[C@@H]23)nc2[nH]cc(-c3ccn4nccc4c3)c12` (stereo partly drawn) [Compound 2323, N-((1R,5S,6r)-3-Oxabicyclo[3.1.0]hexan-6-yl)-4-methoxy-5-(pyrazolo[1,5-a]pyridin-5-yl)-7H-pyrrolo[2,3-d]pyrimidin-2-amine], the concentration for a half-maximal effect (EC50) turned out to be 0.9 nM. The same measure for `COc1nc(N[C@@H]2[C@@H]3COC[C@@H]32)nc2[nH]cc(-c3ccn4nccc4c3)c12` [Compound 2324, N-((1R,5S,6s)-3-oxabicyclo[3.1.0]hexan-6-yl)-4-methoxy-5-(pyrazolo [1,5-a]pyridin-5-yl)-7H-pyrrolo[2,3-d]pyrimidin-2-amine]: 1.5 nM; for `COc1nc(NCC(C)(C)F)nc2[nH]cc(-c3ccn4nccc4n3)c12` [Compound 2325, N-(2-Fluoro-2-methylpropyl)-4-methoxy-5-(pyrazolo[1,5-a]pyrimidin-5-yl)-7H-pyrrolo[2,3-d]pyrimidin-2-amine]: 87 nM. The same measure for `C[C@]1(O)CC[C@@H](Nc2ncc3c(-c4ccc5nccn5c4)c[nH]c3n2)CC1` [Compound 2349, cis-4-((5-(Imidazo[1,2-a]pyridin-6-yl)-7H-pyrrolo[2,3-d]pyrimidin-2-yl)amino)-1-methylcyclohexan-1-ol]: 1.3 nM; for `COc1nc(N[C@H]2CC[C@](C)(O)CC2)nc2[nH]cc(-c3ccc4nccn4c3)c12` [Compound 2378, trans-4-((5-(Imidazo[1,2-a]pyridin-6-yl)-4-methoxy-7H-pyrrolo[2,3-d]pyrimidin-2-yl)amino)-1-methylcyclohexan-1-ol]: 1.1 nM. Take `COc1nc(N[C@H]2CC[C@](C)(O)CC2)nc2[nH]cc(-c3cc(F)c4nccn4c3)c12` [Compound 2494, trans-4-((5-(8-Fluoroimidazo[1,2-a]pyridin-6-yl)-4-methoxy-7H-pyrrolo[2,3-d]pyrimidin-2-yl)amino)-1-methylcyclohexan-1-ol]: the EC50 amounted to 1.1 nM.

On to `C[C@]1(O)CC[C@@H](Nc2ncc3c(-c4ccc5ncnn5c4)c[nH]c3n2)CC1` [Compound 3018, (1s,4s)-4-((5-([1,2,4]Triazolo[1,5-a]pyridin-6-yl)-7H-pyrrolo[2,3-d]pyrimidin-2-yl)amino)-1-methylcyclohexan-1-ol], for which the 50% effective concentration (EC50) turned out to be 4.4 nM. The result for `COc1nc(N[C@H]2CC[C@@H](OC)CC2)nc2[nH]cc(-c3ccc4ncnn4c3)c12` [Compound 3047, 5-([1,2,4]Triazolo[1,5-a]pyridin-6-yl)-4-methoxy-N-(cis-4-methoxycyclohexyl)-7H-pyrrolo[2,3-d]pyrimidin-2-amine] reads 1.2 nM; that for `[2H]C([2H])([2H])Oc1nc(N[C@H]2CC[C@@H](OC)CC2)nc2[nH]cc(-c3ccc4nnn(C)c4c3)c12` [Compound 3115, 4-(Methoxy-d3)—N-(cis-4-methoxycyclohexyl)-5-(1-methyl-1H-benzo[d][1,2,3]triazol-6-yl)-7H-pyrrolo[2,3-d]pyrimidin-2-amine], 1.3 nM. The same measure for `COc1nc(N[C@H]2CC[C@](C)(O)CC2)nc2[nH]cc(-c3ccc4nnn(C)c4c3)c12` [Compound 3119, trans-4-((4-Methoxy-5-(1-methyl-1H-benzo[d][1,2,3]triazol-6-yl)-7H-pyrrolo[2,3-d]pyrimidin-2-yl)amino)-1-methylcyclohexan-1-ol]: 0.2 nM. The same measure for `COc1nc(N[C@H]2CC[C@@](C)(O)CC2)nc2[nH]cc(-c3ccc4nnn(C)c4c3)c12` [Compound 3120, cis-4-((4-Methoxy-5-(1-methyl-1H-benzo[d][1,2,3]triazol-6-yl)-7H-pyrrolo[2,3-d]pyrimidin-2-yl)amino)-1-methylcyclohexan-1-ol]: 4.2 nM; for `COc1nc(N[C@@H]2[C@@H]3COC[C@@H]32)nc2[nH]cc(-c3ccc4nnn(C)c4c3)c12` [Compound 3127, N-((1R,5S,6s)-3-Oxabicyclo[3.1.0]hexan-6-yl)-4-methoxy-5-(1-methyl-1H-benzo[d][1,2,3]triazol-6-yl)-7H-pyrrolo[2,3-d]pyrimidin-2-amine]: 1.4 nM.

In the case of `COc1nc(N[C@@H]2[C@@H]3COC[C@@H]32)nc2[nH]cc(-c3ccc4nnn(C)c4c3)c12` [Compound 3128, N-((1R,5S,6r)-3-Oxabicyclo[3.1.0]hexan-6-yl)-4-methoxy-5-(1-methyl-1H-benzo[d][1,2,3]triazol-6-yl)-7H-pyrrolo[2,3-d]pyrimidin-2-amine], the half-maximal effective concentration (EC50) came to 0.6 nM.

Consider `COc1nc(NC2CCC3(CC2)COC3)nc2[nH]cc(-c3ccc4nnn(C)c4c3)c12` [Compound 3133, 4-Methoxy-5-(1-methyl-1H-benzo[d][1,2,3]triazol-6-yl)-N-(2-oxaspiro[3.5]nonan-7-yl)-7H-pyrrolo[2,3-d]pyrimidin-2-amine], for which the EC50 is 1.1 nM. The result for `C[C@]1(O)CC[C@@H](Nc2ncc3c(-c4ccc5nccn5n4)c[nH]c3n2)CC1` [Compound 3224, (1s,4s)-4-((5-(Imidazo[1,2-b]pyridazin-6-yl)-7H-pyrrolo[2,3-d]pyrimidin-2-yl)amino)-1-methylcyclohexan-1-ol] reads 2.6 nM. The result for `CO[C@H]1CC[C@H](Nc2ncc3c(-c4ccn5nccc5c4)c[nH]c3n2)CC1` [Compound 3277, N-(trans-4-Methoxycyclohexyl)-5-(pyrazolo[1,5-a]pyridin-5-yl)-7H-pyrrolo[2,3-d]pyrimidin-2-amine] reads 1.9 nM; that for `FC(F)O[C@H]1CC[C@H](Nc2ncc3c(-c4ccn5nccc5c4)c[nH]c3n2)CC1` [Compound 3278, N-(trans-4-(Difluoromethoxy)cyclohexyl)-5-(pyrazolo[1,5-a]pyridin-5-yl)-7H-pyrrolo[2,3-d]pyrimidin-2-amine], 19.2 nM; that for `COc1nc(N)nc2[nH]cc(-c3ccn4nccc4c3)c12` [Compound 3291, 4-methoxy-5-(pyrazolo[1,5-a]pyridin-5-yl)-7H-pyrrolo[2,3-d]pyrimidin-2-amine], 1.1 nM.
